The subject of one experiment is NKG2A^+ cells. The experiment in a line: Zinc chelation: macaque blood NK cells, SAMT-247 and/or gp120 peptides with or without TPEN. In kind it is cell-based. To be noted: presence or absence of gp120 peptide. The method, then: Zinc chelation: The frequencies and cytokine levels of NK cells, monocytes and T cells were measured in macaque blood. Cryopreserved PBMCs were thawed and cultured in R10 in the presence/or absence of SAMT-247 and/or gp120 peptides for 12 hours. Cells were incubated with or without Zinc chelator TPEN (cat. #P4413-100 MG, 5 μM) for 12 h. Subsequently, cells were stained for live cells with Live/Dead Blue dye (cat. #L34962, 0.5 μl) from Thermofisher; followed by surface staining with the following: Alexa 700 anti-CD3 (SP34-2; cat. #557917, 5 μl), BV711 anti-CD4 (L200; cat. #563913, 5 μl), BB700 anti-CD8 (RPA-T8; cat. #566452, 5 μl), BUV737 anti-CD20 (2H7; cat. #612848, 5 μl), PE anti-CD45 (D058-1283; cat. #552833, 5 μl), BV786 anti-CCR5 (3A9; cat. #565001, 5 μl), BV496 anti-CD16 (3G8; cat. #612944, 5 μl), BUV661 anti-HLA-DR (G46-6; cat. #612980, 5 μl), BUV805 anti-CD14 (M5E2; cat. #565779, 5 μl) from BD Biosciences; APC-H7 anti-CD11b (ICRF44; cat. #47-0118-42, 5 μl), PE-Cy5 anti-CD95 (ICRF44; cat. #15-0959-42, 5 μl) from eBioscience; APC anti-α4β7, provided by the NIH Nonhuman Primate Reagent Resource (R24 OD010976, and NIAID contract HHSN272201300031C); BV605 anti-CCR6 (G034E3; cat. #353420, 5 μl), BV650 anti-CXCR3 (G025H7; cat. #353730, 5 μl), from Biolegend and PE-Cy7 anti-NKG2A (Z199; cat. #B10246, 5 μl) from Beckman coulter for 30 minutes at room temperature. This was followed by permeabilization with a FOX3-transcription buffer set (cat. #00-5523-00) from eBioscience according to the manufacture's recommendation and subsequently intracellular staining with the following: BV750 anti-TNF-α (MAB11; cat. #566359, 5 μl), BUV395 anti-IFN-γ (B27; cat. #563563, 5 μl), BV510 anti-GranB (GB11; cat. #563388, 5 μl), BV421 anti-IL-10 (JES3-9D7; cat. #564053, 5 μl), PE-CF594 anti-Ki67 (B56; cat. #567120, 5 μl) from BD Biosciences and FITC anti-Perforin (pf-344; cat. #3465-7, 5 μl) from MABTECH for 30 minutes at room temperature. Flow cytometry acquisitions were performed on a FACSYMPHONY™ A5 and examined using FACSDIVA™ software (BD Biosciences).

In a further experiment the test system is CD14^+ cells. As to the kind of experiment: Efferocytosis assay using SAMT-247 and gp120 pooled peptides. The format is cell-based, macaque. The method, then: Efferocytosis assay. The frequency of efferocytotic CD14^+ cells was assessed by Efferocytosis Assay kit (#601770, Cayman Chemical company, Ann Arbor, MI, USA). CD14^+ cells were used as effector cells, whereas apoptotic neutrophils were used as target cells. The protocol was readapted in order to use CD14^+ monocyte cells rather than differentiated macrophages due to the low cell availability. CD14^+ cells were isolated from cryopreserved PBMCs (10×10^6 cells) collected following pre-study and 2 weeks post last immunization (week 14) or 5 weeks post last immunization (week 17) by using non-human primate CD14 microbeads (#130-091-097, Miltenyi Biotec Inc.) and following manufacturer instructions. At the end of the separation cells were counted and stained with CYTOTELL™ Blue provided by the kit and following manufacturer instructions. One unrelated macaque was used as source of neutrophils as target cells. Neutrophils were isolated as previously described (Khandpur, R., et al., Sci Transl Med 5, 178ra140 (2013)). Briefly, following isolation of PBMCs by Ficoll Plaque (GE Healthcare), the cellular pellet was added to an equal volume of 20% dextran in water, gently mixed, and incubated for 1 min. Approximately three volumes of PBS were added, mixed again and incubated in the dark for 50-60 minutes. At the end of incubation, the clear layer at the top of the tube containing neutrophils was collected. Cells were pelleted and treated with ACK lysing buffer (Quality Biological, Gaithersburg, MD, USA) for 5 min at 37° C., washed with R10 and counted. Neutrophils were stained with CFSE provided by the kit and following manufacturer instructions. The apoptosis of neutrophils was induced by treatment with Staurosporine Apoptosis inducer provided by the kit. Briefly, isolated cells were resuspended in R10 containing Staurosporine diluted 1:1000 and incubated at 37° C. for 3 hours. At the end of the incubation cells were washed twice with R10 and used for the efferocytosis assay. Subsequently, effector and apoptotic target cells were cultured alone (as controls) or cocultured at a ratio of one effector CD14^+ cell and three target apoptotic neutrophils. Cells were incubated at 37° C. for 12 hours. At the end of the coculture, cells were washed with PBS, fixed with 1% paraformaldehyde in PBS and acquired on a FACSYMPHONY™ A5 and examined using FACSDIVA™ software (BD Biosciences) by acquiring all stained cells. Data were further analyzed using FlowJo v10.1 (Treestar, Inc., Ashland, OR). The frequency of efferocytotic CD14^+ cells was determined as the frequency of double-positive cells for CYTOTELL™ Blue and CFSE on the CYTOTELL™ Blue positive monocytes.
Efferocytosis assay using SAMT-247 and gp120 pooled peptides. Efferocytosis was done as described above with the exception that SAMT-247 and/or gp120 pooled peptides were added to the co-culture for 12 hours. SAMT-247 induced Efferocytosis was measured by subtracting Efferocytosis with no SAMT-247 treated effector cells from Efferocytosis with SAMT-247 treated effector cells.

A further experiment concerns SIVmac251. To be noted: cited from earlier work.
Setting [1] is: CD14^+ cells collected pre and two weeks after last immunization.
[2] abbreviates: sorted monocytes from PBMCs stimulated with gp120 peptides ± SAMT-247.

Take `CC(=O)Sc1ccccc1C(=O)NCCC(N)=O` [SAMT-247]: in the experiment with NKG2A^+ cells, the “frequency of NKG2A^+ cells” value was “increased”. For the same molecule, in the experiment with CD14^+ cells (setting [1]), the “per-cell amount of engulfed apoptotic cells (MFI)” value is “augmented” and the “percentage of CD14^+ cells engulfing apoptotic cells” value is recorded as “augmented”. In addition, the Function entry in the experiment with CD14^+ cells (Monocytes unstimulated or +gp120 peptides) is given as “>Efferocytosis”. In addition, in the experiment on CD14^+ cells (setting [2]), the “per-cell amount of cells engulfed (MFI)” value is recorded as “reconstituted” and the “percentage of CD14^+ cells engulfing apoptotic neutrophils” value is on record as “reconstituted”. Also, the “effect in the SIVmac251 model” value with SIVmac251 (SAMT-247 alone 3 hours prior to each challenge, animals mock immunized with empty Ad vector and alum (Helmold Hait et al. 2020)) was “protective effect”. Also, the “risk of SIVmac251 acquisition” value with SIVmac251 (gel given four hours before challenge exposure (Helmold Hait et al. 2020)) is listed as “unable to decrease”.

The values are drawn from patent US20240277829A1, “HIV-1 VACCINATION AND SAMT-247 MICROBICIDE TO PREVENT HIV-1 INFECTION” (priority 2021, published 2024).
